{
  "source": "patent US20050042283A1",
  "about": "“Histamine and CCK2/gastrin receptor blockade in the treatment of acid-peptic disease and cancer” (UNIVERSITY OF MASSACHUSETTS, priority 2003, published 2005)",
  "key": {"[1]": {"tested_on": "H. felis-infected INS-GAS mice", "assay": "Maximal gastric acid output by pyloric ligation", "format": "in vivo", "details": "3 months treatment; for Reduction of gastric acid output: acid secretion over 4 hours", "description": "(§1) Mice in group III were treated orally with the histamine H2 receptor antagonist loxtidine (in drinking water) at a dose of 0.5 g/L, while group IV mice received both drugs. For the 3 months drug study of inhibitory effects on maximal acid secretion, gastric atrophy, hyperplasia and dysplasia, 8 mice were prepared for each group. For the 6 months drug study of inhibitory effects on gastric carcinogenesis, 17 mice were prepared for each group.\nThe pyloric ligation method was used to measure maximal acid secretion as previously described (Chen, D. et al., 2004). Briefly, mice were fasted overnight and anesthetized by isoflurane inhalation. The abdomen was incised by midline celiotomy, the pylorus ligated firmly, and the abdomen closed with surgical sutures. After 4 hours, the mice were euthanized and gastric juice collected. The acidity of gastric juice was measured with a pH meter (AR 25; Fisher Scientific, Houston, Tex.) by 0.01 N NaOH titration and results expressed as μEq."}, "TNF-alpha": {"tested_on": "TNF-alpha", "assay": "Real-time RT-PCR of cytokine expression: TNF-alpha", "format": "in vivo", "details": "6 months, versus untreated mice", "description": "(§2) Real-time RT-PCR assay of growth factors and cytokine expression profiles Total RNAs were extracted from a sample of whole stomach from each animal with Trizol (Invitrogen, Calif.) and five micrograms of total RNA were used for first strand cDNA synthesis using Superscript II cDNA amplification System (Invitrogen, Calif.) following manufacturer's instructions. Real-time PCR was performed as above using RT-PCR primers for each gene as listed below. All primers were designed using Lasergene ver5.0 software (DNASTAR inc., Madison, Wis.). Results were calculated by minus delta delta threshold cycle (-ΔΔCt) method (Livak, K. J. et al., 2001). Briefly, the threshold cycle Ct1 of each sample reaction was deducted from the threshold cycle Ct2 of GAPDH reaction for normalization, and then deducted from the threshold cycle Ct3 of calibration control (45 cycles in this experiment), i.e., the final result was represented by the formula; Ct3-(Ct1-Ct2). […]"}, "Reg I": {"tested_on": "Reg I", "assay": "Real-time RT-PCR of growth factor expression: Reg I", "format": "in vivo", "details": "quantitative real-time PCR; versus non drug treated mice", "description": "as §2"}, "[2]": {"tested_on": "H. felis-infected INS-GAS mice", "assay": "Stomach wet-weight and gross stomach size", "format": "in vivo", "excerpt": "The control group (A) included INS-GAS mice that were infected with H. felis but untreated, resulting in a total of 4 groups of mice (A-D). The INS-GAS (male) mice entered the study at 6-8 weeks of age, and were housed in 4 cages. There were 21 mice in each group, seven of which were euthanized after 3 months and 14 of which were euthanized after 6-7 months. The doses of medication are shown. Loxtidine was given in the drinking water while YF476 was given by subcutaneous injection once a week.\nFIG. 4: Closed stomachs from INS-GAS/H. felis mice. Gross photos of representative stomachs from each of the four groups of 6 month H. felis-infected INS-GAS mice are shown. Mice were euthanized by CO2 inhalation and the stomachs were removed by […] of the esophagus and duodenum.\nas §1"}, "[3]": {"tested_on": "COOH-terminally amidated gastrin", "assay": "Gastrin radioimmunoassay (serum amidated gastrin)", "format": "in vivo, mice", "details": "6 months treatment", "description": "Plasma gastrin levels (COOH-terminally amidated gastrin) were determined by radioimmunoassay using rabbit antiserum L2 that reacts similarly with G17 and […]. Real-time PCR Assay of Helicobacter felis infection in mouse stomachs and RT-PCR assay of growth factors and cytokine expression profiles H.felis DNA present in infected mouse stomachs was quantified using a modification of a previously described realtime PCR assay that accurately quantified H. pylori (Ge, Z. et al., 2001). Two primers (forward: 5′-[…] -3′ (SEQ ID NO:1); reverse: 5′-[…]-3′(SEQ ID NO:2) were designed to hybridize within the conserved region of the single copy H. felis flaB gene locus. No products were amplified from DNA isolated from H. pylori, H. mustelae, or H. bizzozeroni, confirming the specificity of these oligonucleotides for H. felis. DNA from plate-grown H. felis and from mouse gastric corpus was prepared using a high pure PCR kit (Roche Molecular Biochemicals, Indianapolis, IN). Real-time PCR was performed using SmartCycler (Cepheid, Calif.) and Quantitect SYBR Green PCR kit (QIAGEN Inc., Valencia, Calif.) following the manufacturer's instructions. Briefly, the PCR assay was performed under the following conditions: 95° C. for 15 minutes followed by 45 cycles of 95° C. for 15 seconds, 55° C. for 30 seconds and 72° C. for 30 seconds. […]"}, "IFN-gamma": {"tested_on": "IFN-gamma", "assay": "Real-time RT-PCR of cytokine expression: IFN-gamma", "format": "in vivo", "details": "6 months, versus untreated mice", "description": "as §2"}, "IL-4": {"tested_on": "IL-4", "assay": "Real-time RT-PCR of cytokine expression: IL-4", "format": "in vivo", "details": "6 months; versus untreated mice; listed as loxtidine alone", "description": "as §2"}},
  "note": "“And” between values parts separate entries of the source, which are not always exact repeats. Identical values can stand only once. “Also recorded” adds a separate entry of the source.",
  "data": [
    {"substance": "1-methyl-5-((3-(3-(1-piperidinylmethyl)phenoxy)propyl)amino)-1H-1,2,4-triazole-3-ethanol [Loxtidine]", "values": [
      {"measurement": "Maximal gastric acid output (MAO), effect in words", "setting": "[1]", "value": "significantly inhibited"},
      {"measurement": "Reduction of gastric acid output", "setting": "[1]", "value": 80, "unit": "%"},
      {"measurement": "Reduction of gastric acid output", "setting": "[1]; listed as loxtidine", "value": 83, "unit": "%"},
      {"measurement": "TNF-alpha expression level", "setting": "TNF-alpha; listed as Loxtidine alone", "value": "significantly lower level"},
      {"measurement": "TNF-alpha expression level", "setting": "TNF-alpha; listed as loxtidine alone", "value": "significantly down-regulated"},
      {"measurement": "Reg I expression level", "setting": "Reg I", "value": "markedly reduced"},
      {"measurement": "Gross stomach size", "setting": "[2]; 6 month H. felis-infected mice", "value": "significant reduction in apparent size"},
      {"measurement": "Stomach weight after treatment", "setting": "[2]; untreated 1831 / ~1830 mg", "value": "~400 mg and ~800 mg"},
      {"measurement": "Serum amidated gastrin levels compared with untreated mice", "setting": "[3]", "value": "no significant, but in a higher tendency"},
      {"measurement": "Serum amidated gastrin levels compared with untreated mice", "setting": "[3]; listed as loxtidine alone", "value": "tendency toward higher gastrins that was not significant"},
      {"measurement": "IFN-gamma expression level", "setting": "IFN-gamma; listed as Loxtidine alone", "value": "significantly lower level"},
      {"measurement": "IFN-gamma expression level", "setting": "IFN-gamma; listed as loxtidine alone", "value": "significantly down-regulated"},
      {"measurement": "IL-4 expression level", "setting": "IL-4", "value": "large and significant increase; also recorded: significantly higher level"}
    ]}
  ]
}
